Patent US8741940B2, “Microbicidal composition” (Rohm and Haas Company, priority 2005, dated 2014)
Read-outs that look alike come from different tables or passages of the source.

Legend:
Format in all cases: cell-based
[1] = test system: Candida albicans (C. albicans—ATCC 10231); experiment: Synergy test, microtiter plate high resolution MIC assay, yeast in PDB medium; set-up: key to SI (synergy index): SI = Qa/QA + Qb/QB; >1 antagonism, lower SI = greater synergy; Qb (Second Component B) / Qa (First Component A): unit: ppm; details: for MIC: Candida albicans
Procedure: (§1) When the sum of Qa/QA and Qb/QB is greater than one, antagonism is indicated. […] The lower the SI, the greater the synergy shown by that particular mixture. The minimum inhibitory concentration (MIC) of a microbicide is the lowest concentration tested under a specific set of conditions that prevents the growth of added microorganisms.
(§2) Synergy tests were conducted using standard microtiter plate assays with media designed for optimal growth of the test microorganism. Minimal salt medium supplemented with 0.2% glucose and 0.1% yeast extract (M9GY medium) was used for testing bacteria; Potato Dextrose Broth (PDB medium) was used for testing yeast and mold. In this method, a wide range of combinations of microbicides and other personal care raw materials was tested by conducting high resolution MIC assays in the presence of various concentrations of BBIT or MBIT. High resolution MICs were determined by adding varying amounts of microbicide to one column of a microtitre plate and doing subsequent […] dilutions using an automated liquid handling system to obtain a series of endpoints ranging from 2 ppm to 10,000 ppm active ingredient.
(§3) The bacteria were used at a concentration of about 5 ×10^6 bacteria per mL and the yeast and mold at 5×10^5 fungi per mL. These microorganisms are representative of natural contaminants in many consumer and industrial applications. […] (yeast and mold) or 30° C. (bacteria).
(§4) In each test, First Component (A) was BBIT and the Second Component (B) was the other commercial microbicide.
(§5) In each test, First Component (A) was MBIT and the Second Component (B) was the other commercial microbicide.

[2] = test system: Escherichia coli (E. coli—ATCC #8739); experiment: Synergy test, microtiter plate high resolution MIC assay, bacterium in M9GY medium; set-up: key to SI (synergy index): SI = Qa/QA + Qb/QB; >1 antagonism, lower SI = greater synergy; Qa (First Component A) / Qb (Second Component B): unit: ppm; details: for MIC: Escherichia coli
Procedure: as §1, §2, §3, §4, §5

[3] = test system: Aspergillus niger (A. niger—ATCC 16404); experiment: Synergy test, microtiter plate high resolution MIC assay, mold in PDB medium; set-up: key to SI (synergy index): SI = Qa/QA + Qb/QB; >1 antagonism, lower SI = greater synergy; Qb (Second Component B) / Qa (First Component A): unit: ppm; details: for MIC: Aspergillus niger
Procedure: as §1, §2, §3, §4, §5

[4] = A=MBIT, B=2-bromo-2-nitro-propane-1,3-diol (BNPD), C. albicans 10231 - PDB, 24 hours
[5] = A=MBIT, B=2-bromo-2-nitro-propane-1,3-diol (BNPD), E. coli 8739 - M9GY, 24 hours
[6] = A=MBIT, B=2-bromo-2-nitro-propane-1,3-diol (BNPD), A. niger 16404 - PDB, 4 days
[7] = C. albicans 10231, PDB, 24 hours
[8] = C. albicans 10231, PDB, 24 hours, alone where Qa = 0, otherwise in the mixture
[9] = E. coli 8739, M9GY, 48 hours, alone where Qa = 0, otherwise in the mixture

## O=[N+]([O-])C(Br)(CO)CO [BNPD, 2-bromo-2-nitro-propane-1,3-diol]
[1]; [4]
  Qb (Second Component B): 1000
  SI (synergy index): 1.00
[1]; ATCC10231, C. albicans 10231, PDB, 48 hours, 25° C., read-out: MIC of the component acting alone (QA / QB)
  MIC: 2000 mg/L
[2]; [5]
  Qb (Second Component B): 8
  SI (synergy index): 1.00
[2]; ATCC8739, E. coli 8739, M9GY, 48 hours, 30° C., read-out: MIC of the component acting alone (QA / QB)
  MIC: 10 mg/L
[3]; [6]
  Qb (Second Component B): 2000
  SI (synergy index): 1.00
[3]; ATCC16404, 168 h, A. niger 16404, PDB, 7 days, 25° C., read-out: MIC of the component acting alone (QA / QB)
  MIC: 2000 mg/L

## cocamidopropyl PG-dimonium chloride phosphate
[1]; [7]
  SI (synergy index): 1.00
[1]; [8]
  Qb (concentration of second component producing the end point, MIC): 1000 ppm
[1]; C. albicans 10231 - PDB, 24 hours, BBIT with Phospholipid PTC
  SI: 1.00
[2]; E. coli 8739, M9GY, 48 hours
  SI (synergy index): 1.00
[2]; [9]
  Qb (concentration of second component producing the end point, MIC): 100 ppm
[2]; E. coli 8739 - M9GY, 72 hours, BBIT with Phospholipid PTC
  SI: 1.00
[3]; A. niger 16404, PDB, 4 days
  SI (synergy index): 1.00
[3]; A. niger 16404, PDB, 4 days, alone where Qa = 0, otherwise in the mixture
  Qb (concentration of second component producing the end point, MIC): 1000 ppm
[3]; A. niger 16404 - PDB, 3 days, BBIT with Phospholipid PTC
  SI: 1.00

## CCCOC(=O)c1ccc(O)cc1 [Propylparaben]
[1]; [7]
  SI (synergy index): 1.00
[1]; C. albicans 10231 - PDB, 24 hours, BBIT with Propylparaben
  SI: 1.00
[1]; ATCC10231, C. albicans 10231, PDB, 24 hours, alone where Qa = 0, otherwise in the mixture, read-out: Qb (concentration of second component producing the end point, MIC)
  MIC: 2000 mg/L
[2]; E. coli 8739, M9GY, 48 hours
  SI (synergy index): 1.00
[2]; E. coli 8739 - M9GY, 24 hours, BBIT with Propylparaben
  SI: 1.00
[2]; ATCC8739, E. coli 8739, M9GY, 48 hours, alone where Qa = 0, otherwise in the mixture, read-out: Qb (concentration of second component producing the end point, MIC)
  MIC: 4000 mg/L
[3]; A. niger 16404, PDB, 7 days
  SI (synergy index): 1.00
[3]; A. niger 16404 - PDB, 7 days, BBIT with Propylparaben
  SI: 1.00
[3]; ATCC16404, 168 h, A. niger 16404, PDB, 7 days, alone where Qa = 0, otherwise in the mixture, read-out: Qb (concentration of second component producing the end point, MIC)
  MIC: 2000 mg/L

## linoleamidopropyl PG-dimonium chloride phosphate
[1]; [7]
  SI (synergy index): 1.00
[1]; [8]
  Qb (concentration of second component producing the end point, MIC): 1000 ppm
[1]; C. albicans 10231 - PDB, 24 hours, BBIT with Phospholipid EFA
  SI: 1.00
[2]; E. coli 8739, M9GY, 48 hours
  SI (synergy index): 1.00
[2]; [9]
  Qb (concentration of second component producing the end point, MIC): 500 ppm
[2]; E. coli 8739 - M9GY, 48 hours, BBIT with Phospholipid EFA
  SI: 1.00
[3]; A. niger 16404, PDB, 3 days
  SI (synergy index): 1.00
[3]; A. niger 16404, PDB, 3 days, alone where Qa = 0, otherwise in the mixture
  Qb (concentration of second component producing the end point, MIC): 2000 ppm
[3]; A. niger 16404 - PDB, 4 days, BBIT with Phospholipid EFA
  SI: 1.00

## C/C=C/C=C/C(=O)[O-].[K+] [Potassium sorbate]
[1]
  SI: 1.00
  SI (synergy index): 1.00
[1]; ATCC10231, 24 h, read-out: Qb (concentration of second component producing the end point, MIC)
  MIC: 400 mg/L
[2]
  SI: 1.00
  SI (synergy index): 1.00
[2]; ATCC8739, 48 h, read-out: Qb (concentration of second component producing the end point, MIC)
  MIC: 20000 mg/L
[3]
  SI: 1.00
  SI (synergy index): 1.00
[3]; ATCC16404, 96 h, read-out: Qb (concentration of second component producing the end point, MIC)
  MIC: 10000 mg/L
